# Assay results as given in patent US9303033B2, “Pyrazolopyrimidines and related heterocycles as CK2 inhibitors” (SENHWA BIOSCIENCES, INC., priority 2009, dated 2016).
# Where two headings read alike, the source gives them in different places.
# Tests used:
# MDAMB453 = test: Cell proliferation assay with Alamar Blue (AB), MDAMB453; format: cell-based
# Method: (§1) A representative cell-proliferation assay protocol using Alamar Blue dye (stored at 4° C., use 20 ul per well) is described hereafter.
# (§2) a. Split and trypsinize cells.
# (§3) b. Count cells using hemocytometer.
# (§4) c. Plate 4,000-5,000 cells per well in 100 μl of medium and seed into a 96-well plate according to the following plate layout. Add cell culture medium only to wells B10 to B12.
# (§5) d. Add 100 μl of 2× drug dilution to each well in a concentration shown in the plate layout above. […] Total volume is 200 μl/well.
# (§6) e. Incubate four (4) days at 37° C., 5% CO2 in a humidified incubator.
# (§7) f. Add […] Alamar Blue reagent to each well.
# (§8) g. Incubate for four (4) hours at 37° C., 5% CO2 in a humidified incubator.
# (§9) h. Record fluorescence at an excitation wavelength of 544 nm and emission wavelength of 590 nm using a microplate reader.
# (§10) In the assays, cells are cultured with a test compound for approximately four days, the dye is then added to the cells and fluorescence of […] dye is detected after approximately four hours. Different types of cells can be utilized in the assays (e.g., HCT-116 human colorectal carcinoma cells, PC-3 human prostatic cancer cells, MDA-MB231 human breast cancer cells, K-562 human chronic myelogenous leukemia (CML) cells, MiaPaca human pancreatic carcinoma cells, MV-4 human acute myeloid leukemia cells, and BxPC3 human pancreatic adenocarcinoma cells).
# [1] = tested on: BxPC3 human pancreatic adenocarcinoma cells; test: Cell proliferation assay with Alamar Blue (AB), BxPC3; format: cell-based
# Method: as §1, §2, §3, §4, §5, §6, §7, §8, §9, §10
# recombinant human PIM2 = recombinant human PIM2 (Homo sapiens (Human), UniProt Q9P1W9); test: PIM-2 assay (33P-ATP filter binding); format: biochemical; conditions: for IC50: PIM2: IC50 (5 μM ATP), 5 μM ATP; for PIM2: % inh […]: at […] compound
# Sequence of recombinant human PIM2 (Q9P1W9 whole entry): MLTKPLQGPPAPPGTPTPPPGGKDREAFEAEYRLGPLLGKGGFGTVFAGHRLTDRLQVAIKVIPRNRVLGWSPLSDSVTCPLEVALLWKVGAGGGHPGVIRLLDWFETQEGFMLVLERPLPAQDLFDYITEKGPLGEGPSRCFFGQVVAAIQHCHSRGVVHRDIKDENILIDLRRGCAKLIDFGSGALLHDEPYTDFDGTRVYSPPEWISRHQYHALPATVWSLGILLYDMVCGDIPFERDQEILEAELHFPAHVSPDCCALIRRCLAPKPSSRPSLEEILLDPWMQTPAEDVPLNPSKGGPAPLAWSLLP
# Method: Test compounds dissolved and diluted in DMSO (2 μl) were added to a reaction mixture comprising 10 μl of 5× Reaction Buffer (40 mM MOPS pH 7.0, 5 mM EDTA), 10 μl of recombinant human PIM2 solution (4 ng PIM-2 dissolved in dilution buffer (20 mM MOPS pH 7.0; EDTA 1 mM; 5% Glycerol; 0.01% Brij 35; 0.1%; 0.1% 2-mercaptoethanol; 1 mg/ml BSA)) and 8 ul of water.
# CK2 ααββ = CK2 ααββ (Homo sapiens (Human), UniProt P68400); test: CK2 assay (cell-free, 33P-ATP, phosphocellulose filter plate); format: biochemical
# Sequence of CK2 ααββ (P68400 whole entry): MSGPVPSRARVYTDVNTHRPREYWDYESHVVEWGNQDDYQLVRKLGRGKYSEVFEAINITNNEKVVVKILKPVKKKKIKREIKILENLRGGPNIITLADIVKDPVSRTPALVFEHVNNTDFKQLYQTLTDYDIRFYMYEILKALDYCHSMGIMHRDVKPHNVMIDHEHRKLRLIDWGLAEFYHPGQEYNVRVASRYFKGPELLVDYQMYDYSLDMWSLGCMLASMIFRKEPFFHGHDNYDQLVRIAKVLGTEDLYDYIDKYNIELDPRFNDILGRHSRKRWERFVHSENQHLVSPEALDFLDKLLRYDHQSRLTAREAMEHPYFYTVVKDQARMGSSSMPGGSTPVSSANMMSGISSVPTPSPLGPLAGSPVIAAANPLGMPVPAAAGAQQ
# Sequence of CK2 ααββ (P67870 whole entry partner): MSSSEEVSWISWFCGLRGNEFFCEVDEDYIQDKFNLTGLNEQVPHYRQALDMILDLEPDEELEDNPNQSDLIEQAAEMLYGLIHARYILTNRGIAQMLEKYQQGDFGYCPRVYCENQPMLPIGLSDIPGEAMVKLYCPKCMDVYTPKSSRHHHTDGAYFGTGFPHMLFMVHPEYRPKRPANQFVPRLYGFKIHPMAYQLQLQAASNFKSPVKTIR
# [2] = Homo sapiens, MDA-MB-453, MDAMB453 cells, read-out: AB: MDAMB453
# [3] = Homo sapiens, BXPC-3, read-out: AB: BxPC3
# [4] = MDAMB453 cells, read-out: AB: MDAMB453 IC50
Structure (SMILES),IC50 (MDAMB453; [2]),"IC50 [1, 3]",IC50 (recombinant human PIM2),IC50 (CK2 ααββ),IC50 (MDAMB453; [4]),IC50 ([1]; read-out: AB: BxPC3 IC50),PIM2: % inh […] (recombinant human PIM2)
CS(=O)(=O)Nc1cccc(-c2cc(NC3CC3)n3ncc(/C=C4\NC(=O)NC4=O)c3n2)c1 [Example C4],1490 nM,3280 nM,2400 nM,< 100 nM,–,–,–
CN(C)C1CCN(C(=O)c2cccc(Nc3cc(Nc4cccc(Cl)c4)nc4c(/C=C5\NC(=O)NC5=O)cnn34)c2)C1 (stereo not drawn) [Example C7],6440 nM,> 30000 nM,1440 nM,< 10 nM,–,–,–
Cc1c(Nc2ccc(C#N)cc2F)nc2c(C=C3NC(=O)NC3=O)cnn2c1NC1CC1 [Example C46],–,–,–,< 10 nM,6290 nM,15200 nM,59.266%
O=C1NC(=O)/C(=C/c2cnn3c(NC4CC4)cc(Nc4cccc(F)c4)nc23)N1 [Example D1],1340 nM,4070 nM,2200 nM,< 10 nM,–,–,–
N#Cc1cccc(-c2cc(NC3CC3)n3ncc(/C=C4\NC(=O)NC4=O)c3n2)c1 [Example D4],1050 nM,23600 nM,> 2500 nM,< 10 nM,–,–,–
CC(C)N1CCN(C(=O)c2cc(-c3cc(NC4CC4)n4ncc(/C=C5\NC(=O)NC5=O)c4n3)ccc2F)CC1 [Example D5],2440 nM,1210 nM,> 2500 nM,< 100 nM,–,–,–
O=C1NC(=O)/C(=C/c2cnn3c(NCCO)cc(Nc4cccc(Cl)c4)nc23)N1 [Example D6],717 nM,1920 nM,475 nM,< 1000 nM,–,–,–
O=C1NC(=O)/C(=C/c2cnn3c(Nc4cccc(C(=O)O)c4)cc(Nc4cccc(Cl)c4)nc23)N1 [Example D7],14200 nM,> 30000 nM,> 2500 nM,< 100 nM,–,–,–
CN1C(=O)NC(=Cc2cnn3c(NC4CC4)cc(Nc4ccc(C#N)cc4)nc23)C1=O [Example D42],–,–,–,< 100 nM,693 nM,2800 nM,−39.275%
Cc1c(Nc2ccc(C#N)cc2Cl)nc2c(C=C3NC(=O)NC3=O)cnn2c1NC1CC1 [Example D46],–,–,–,< 10 nM,6240 nM,29900 nM,53.934%
O=C1NC(=O)/C(=C/c2cnn3c(NC4CC4)cc(Nc4cccc(OC(F)(F)F)c4)nc23)N1 [Example E1],17700 nM,16800 nM,> 2500 nM,< 10 nM,–,–,–
C=CCOc1cccc(-c2cc(NC3CC3)n3ncc(/C=C4\NC(=O)NC4=O)c3n2)c1 [Example E4],1170 nM,11800 nM,> 2500 nM,< 10 nM,–,–,–
CC(C)(C)OC(=O)N1CCN(C(=O)c2cccc(Nc3cc(Nc4cccc(Cl)c4)nc4c(/C=C5\NC(=O)NC5=O)cnn34)c2)CC1 [Example E7],364 nM,3010 nM,2020 nM,< 10 nM,–,–,–
CN1C(=O)NC(=Cc2cnn3c(NC4CC4)cc(Nc4ccc(C#N)c(Cl)c4)nc23)C1=O [Example E42],–,–,–,< 100 nM,1290 nM,1970 nM,−72.498%
Cc1c(Nc2ccc(-n3cccn3)cc2)nc2c(/C=C3\NC(=O)NC3=O)cnn2c1NC1CC1 [Example E46],–,–,–,< 100 nM,16600 nM,20900 nM,49.545%
COc1cccc(Nc2cc(NC3CC3)n3ncc(/C=C4\NC(=O)NC4=O)c3n2)c1 [Example F1],2040 nM,5760 nM,> 2500 nM,< 10 nM,–,–,–
O=C1NC(=O)/C(=C/c2cnn3c(NC4CC4)cc(-c4cccc(OCC5CC5)c4)nc23)N1 [Example F4],1300 nM,6590 nM,> 2500 nM,< 10 nM,–,–,–

Structure (SMILES),IC50 (MDAMB453; [2]),"IC50 [1, 3]",IC50 (recombinant human PIM2),IC50 (CK2 ααββ),IC50 (MDAMB453; [4]),IC50 ([1]; read-out: AB: BxPC3 IC50),PIM2: % inh […] (recombinant human PIM2)
O=C1NC(=O)/C(=C/c2cnn3c(NC4CC4)cc(-c4ccc(F)c(C(=O)N5CCOCC5)c4)nc23)N1 [Example F5],948 nM,1810 nM,> 2500 nM,< 10 nM,–,–,–
O=C1NC(=O)/C(=C/c2cnn3c(Nc4cccc(C(=O)N5CCNCC5)c4)cc(Nc4cccc(Cl)c4)nc23)N1 [Example F7],1590 nM,14000 nM,1230 nM,< 10 nM,–,–,–
CN1C(=O)NC(=Cc2cnn3c(NC4CC4)cc(Nc4ccccc4F)nc23)C1=O [Example F42],–,–,–,< 100 nM,29100 nM,> 30000 nM,−17.549%
CC1CN(C(C)c2cccc(Nc3cc(NC4CC4)n4ncc(/C=C5\NC(=O)NC5=O)c4n3)c2)CC(C)O1 (stereo not drawn) [Example G1],10000 nM,> 30000 nM,> 2500 nM,< 10 nM,–,–,–
Cc1cc(COc2cccc(-c3cc(NC4CC4)n4ncc(/C=C5\NC(=O)NC5=O)c4n3)c2)no1 [Example G4],1150 nM,1190 nM,> 2500 nM,< 10 nM,–,–,–
CN(C)CCNC(=O)c1cc(-c2cc(NC3CC3)n3ncc(/C=C4\NC(=O)NC4=O)c3n2)ccc1F [Example G5],435 nM,1840 nM,> 2500 nM,< 10 nM,–,–,–
O=C1NC(=O)/C(=C/c2cnn3c(NC4CC4)cc(Nc4ccc(Cl)c(C(F)(F)F)c4)nc23)N1 [Example H1],991 nM,3210 nM,> 2500 nM,< 10 nM,–,–,–
O=C1NC(=O)/C(=C/c2cnn3c(NC4CC4)cc(-c4cccc(OCC(=O)N5CCCC5)c4)nc23)N1 [Example H4],1960 nM,14500 nM,> 2500 nM,< 10 nM,–,–,–
O=C1NC(=O)/C(=C/c2cnn3c(NC4CC4)cc(Nc4ccc(Cl)cc4)nc23)N1 [Example I1],11100 nM,15100 nM,> 2500 nM,< 10 nM,–,–,–
CN(C)c1ccc(-c2cc(NC3CC3)n3ncc(/C=C4\NC(=O)NC4=O)c3n2)cc1 [Example I4],683 nM,1900 nM,> 2500 nM,< 100 nM,–,–,–
O=C1NC(=O)/C(=C/c2cnn3c(NCc4cccnc4)cc(Nc4cccc(Cl)c4)nc23)N1 [Example I6],708 nM,2560 nM,704 nM,< 1000 nM,–,–,–
O=C1NC(=O)/C(=C/c2cnn3c(NC4CC4)cc(Nc4cccc(C(F)(F)F)c4)nc23)N1 [Example J1],7120 nM,3920 nM,2480 nM,< 10 nM,–,–,–
O=C1NC(=O)/C(=C/c2cnn3c(NC4CC4)cc(-c4cccc(F)c4)nc23)N1 [Example J4],4750 nM,> 30000 nM,867 nM,< 10 nM,–,–,–
NCc1cccc(-c2cc(NC3CC3)n3ncc(/C=C4\SC(=O)NC4=O)c3n2)c1 [Example J5],> 30000 nM,19000 nM,198 nM,< 1000 nM,–,–,–
COc1ccc(Nc2cc(NC3CC3)n3ncc(/C=C4\NC(=O)NC4=O)c3n2)cc1Cl [Example K1],7710 nM,5660 nM,> 2500 nM,< 10 nM,–,–,–
Nc1cc(NC2CC2)n2ncc(/C=C3\NC(=O)NC3=O)c2n1 [Example K2],11800 nM,9930 nM,> 2500 nM,< 10 nM,–,–,–
